# According to ChEMBL document CHEMBL1201862, “PubChem BioAssay data set” (2004):
# The source made the active and inactive calls.
# Columns and labels:
# [1] = molecular target: T1, High affinity choline transporter 1 (Homo sapiens, UniProt Q9GZV3); assay: human choline transporter blockers, potency – cell-based, 5-point CRC, membrane potential dye, dose response (AID 504840); format: functional
# T1 sequence (Q9GZV3 whole entry): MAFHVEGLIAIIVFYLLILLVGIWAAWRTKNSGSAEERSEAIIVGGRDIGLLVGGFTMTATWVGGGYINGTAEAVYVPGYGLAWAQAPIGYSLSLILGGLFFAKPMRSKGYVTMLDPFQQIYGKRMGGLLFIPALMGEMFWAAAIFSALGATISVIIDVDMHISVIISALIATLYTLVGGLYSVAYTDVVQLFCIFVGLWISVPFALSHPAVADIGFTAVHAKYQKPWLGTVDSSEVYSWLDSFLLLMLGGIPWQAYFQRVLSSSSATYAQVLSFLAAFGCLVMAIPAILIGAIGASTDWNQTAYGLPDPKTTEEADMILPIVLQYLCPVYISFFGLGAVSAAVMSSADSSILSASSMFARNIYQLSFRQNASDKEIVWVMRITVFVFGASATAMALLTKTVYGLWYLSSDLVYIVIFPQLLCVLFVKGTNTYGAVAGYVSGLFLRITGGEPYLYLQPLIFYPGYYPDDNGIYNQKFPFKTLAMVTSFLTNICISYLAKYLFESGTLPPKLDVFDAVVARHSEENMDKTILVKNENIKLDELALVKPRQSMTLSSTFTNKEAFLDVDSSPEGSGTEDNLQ
# [2] = molecular target: T1, High affinity choline transporter 1; assay: human choline transporter blockers, potency – cell-based, 10-point CRC, membrane potential dye, dose response (AID 588401); format: functional;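 further: membrane potential dye fluorescence of choline-evoked depolarization via CHT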
# [3] = molecular target: T2, Apoptotic protease-activating factor 1 (Homo sapiens, UniProt O14727); format: functional
# T2 sequence (O14727 whole entry): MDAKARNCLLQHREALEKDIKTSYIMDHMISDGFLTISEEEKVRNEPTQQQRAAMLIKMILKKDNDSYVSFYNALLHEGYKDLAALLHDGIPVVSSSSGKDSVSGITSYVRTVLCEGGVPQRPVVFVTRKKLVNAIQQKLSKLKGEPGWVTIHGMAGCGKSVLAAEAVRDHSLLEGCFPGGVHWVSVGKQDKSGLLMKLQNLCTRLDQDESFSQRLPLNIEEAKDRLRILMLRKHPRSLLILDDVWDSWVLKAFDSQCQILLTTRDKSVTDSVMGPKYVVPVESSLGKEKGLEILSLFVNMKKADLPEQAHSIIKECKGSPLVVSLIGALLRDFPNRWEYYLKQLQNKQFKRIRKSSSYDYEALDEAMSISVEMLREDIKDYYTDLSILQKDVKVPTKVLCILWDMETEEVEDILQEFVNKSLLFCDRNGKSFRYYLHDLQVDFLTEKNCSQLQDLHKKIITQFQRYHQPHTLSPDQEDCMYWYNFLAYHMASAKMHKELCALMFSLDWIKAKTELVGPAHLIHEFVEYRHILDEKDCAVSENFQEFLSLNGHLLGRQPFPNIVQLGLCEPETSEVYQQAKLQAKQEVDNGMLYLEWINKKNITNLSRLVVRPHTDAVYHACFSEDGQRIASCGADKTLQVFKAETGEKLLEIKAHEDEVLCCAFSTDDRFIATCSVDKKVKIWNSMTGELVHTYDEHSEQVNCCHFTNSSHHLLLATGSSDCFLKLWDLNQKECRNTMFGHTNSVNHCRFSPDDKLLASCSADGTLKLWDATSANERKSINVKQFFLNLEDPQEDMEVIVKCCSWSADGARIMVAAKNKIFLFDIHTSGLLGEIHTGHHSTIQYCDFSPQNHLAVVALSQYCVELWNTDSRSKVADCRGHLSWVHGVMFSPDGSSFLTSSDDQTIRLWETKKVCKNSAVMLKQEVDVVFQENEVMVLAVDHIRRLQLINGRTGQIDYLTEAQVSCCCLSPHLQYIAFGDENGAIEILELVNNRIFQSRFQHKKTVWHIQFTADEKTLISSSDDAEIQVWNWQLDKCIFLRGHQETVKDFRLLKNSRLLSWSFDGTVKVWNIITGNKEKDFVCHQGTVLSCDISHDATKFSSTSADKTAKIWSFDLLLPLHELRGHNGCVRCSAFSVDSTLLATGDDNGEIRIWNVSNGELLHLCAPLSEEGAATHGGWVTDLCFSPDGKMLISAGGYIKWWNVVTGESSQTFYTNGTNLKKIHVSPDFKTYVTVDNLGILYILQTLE
# [4] = molecular target: Ras and Rab interactor 1/Tyrosine-protein kinase ABL1 (Homo sapiens, UniProt P00519+Q13671); format: functional;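 further: biochemical TR-FRET dose-response test measuring inhibition of binding between Rin1 and Abl proteins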
# H9c2 = assay: cells; format: functional, cell-based; conditions: Rattus norvegicus, H9c2, Myocardium;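 further: confirmatory concentration-response retest of ultra-high-throughput screening hits for modulation of myocardial damage; cell death induced by hydrogen peroxide oxidative stress; compound pretreatment for 60 min then peroxide exposure for 2 h; potency is for protecting the cells against peroxide damage rather than for killing them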
# [5] = molecular target: 72 kDa type IV collagenase (Homo sapiens, UniProt P08253); assay: Dose Response validation of uHTS RPN11 inhibitor hits using a MMP-2 Fluorescence assay.; format: functional
# CHO = CHO cell viability loss, potency – luminescence, cytotoxicity control for TLR9-MyD88 binding inhibitor project, dose response (AID 588339); format: functional, cell-based, hamster; conditions: Cricetulus griseus;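 further: CHO cells stably coexpressing TLR9 and MyD88 fusions from primary screen; compound exposure lasted 48 hours before viability readout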
# [6] = molecular target: 26S proteasome non-ATPase regulatory subunit 14 (Homo sapiens, UniProt O00487); assay: inhibition of proteasome subunit RPN11 – biochemical, fluorescence polarization, uHTS hits, confirmation (AID 602368); format: functional
# Prothrombin = Prothrombin (Bos taurus, UniProt P00735); assay: thrombin protease inhibitors – biochemical, fluorescence polarization, uHTS hits, dose response (AID 602369); format: functional
# Beta Lactamase = Beta Lactamase (Pseudomonas aeruginosa, UniProt Q932Y6); assay: BLA reporter interference, concentration series – BLA reporter cells, FRET fluorescence, artefact control for TLR9-MyD88 binding inhibitor project, dose response (AID 588341); format: cell-based;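 further: cell based assay in CHO-K1 cells stably expressing beta-lactamase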
# [7] = cAMP pathway inhibition in counterscreen cell line – TR-FRET cAMP detection, counter-screen for MC4R biased antagonist project, dose response (AID 602305); format: functional, cell-based;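 further: U2OS cells stimulated with forskolin near its EC80 as the cAMP inducer; potency is for inhibition of forskolin-stimulated cAMP signaling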
# Melanocortin receptor 4 = Melanocortin receptor 4 (Homo sapiens, UniProt P32245); assay: inhibitors of MC4R cAMP signaling – cell-based, TR-FRET, biased antagonists, dose response (AID 602298); format: functional;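 further: antagonist potency against agonist-stimulated cAMP production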
# Sequence of Melanocortin receptor 4 (P32245 whole entry): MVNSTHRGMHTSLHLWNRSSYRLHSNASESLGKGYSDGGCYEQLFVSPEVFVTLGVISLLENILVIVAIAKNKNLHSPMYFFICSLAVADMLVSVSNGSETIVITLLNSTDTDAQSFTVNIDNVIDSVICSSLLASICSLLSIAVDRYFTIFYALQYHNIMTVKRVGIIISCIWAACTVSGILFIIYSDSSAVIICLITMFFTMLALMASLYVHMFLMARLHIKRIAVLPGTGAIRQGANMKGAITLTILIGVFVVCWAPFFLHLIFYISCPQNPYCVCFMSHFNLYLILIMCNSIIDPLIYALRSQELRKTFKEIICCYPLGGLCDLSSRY
# Sequence of 26S proteasome non-ATPase regulatory subunit 14 (O00487 whole entry): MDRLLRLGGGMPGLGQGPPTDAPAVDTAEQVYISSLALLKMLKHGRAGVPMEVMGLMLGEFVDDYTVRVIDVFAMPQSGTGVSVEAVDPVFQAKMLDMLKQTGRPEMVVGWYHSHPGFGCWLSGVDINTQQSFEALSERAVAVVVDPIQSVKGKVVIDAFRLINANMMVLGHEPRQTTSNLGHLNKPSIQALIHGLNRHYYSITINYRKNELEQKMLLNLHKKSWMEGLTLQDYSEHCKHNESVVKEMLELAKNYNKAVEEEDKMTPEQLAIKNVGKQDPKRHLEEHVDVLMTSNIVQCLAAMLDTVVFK
# Sequence of Ras and Rab interactor 1/Tyrosine-protein kinase ABL1 (P00519 whole entry): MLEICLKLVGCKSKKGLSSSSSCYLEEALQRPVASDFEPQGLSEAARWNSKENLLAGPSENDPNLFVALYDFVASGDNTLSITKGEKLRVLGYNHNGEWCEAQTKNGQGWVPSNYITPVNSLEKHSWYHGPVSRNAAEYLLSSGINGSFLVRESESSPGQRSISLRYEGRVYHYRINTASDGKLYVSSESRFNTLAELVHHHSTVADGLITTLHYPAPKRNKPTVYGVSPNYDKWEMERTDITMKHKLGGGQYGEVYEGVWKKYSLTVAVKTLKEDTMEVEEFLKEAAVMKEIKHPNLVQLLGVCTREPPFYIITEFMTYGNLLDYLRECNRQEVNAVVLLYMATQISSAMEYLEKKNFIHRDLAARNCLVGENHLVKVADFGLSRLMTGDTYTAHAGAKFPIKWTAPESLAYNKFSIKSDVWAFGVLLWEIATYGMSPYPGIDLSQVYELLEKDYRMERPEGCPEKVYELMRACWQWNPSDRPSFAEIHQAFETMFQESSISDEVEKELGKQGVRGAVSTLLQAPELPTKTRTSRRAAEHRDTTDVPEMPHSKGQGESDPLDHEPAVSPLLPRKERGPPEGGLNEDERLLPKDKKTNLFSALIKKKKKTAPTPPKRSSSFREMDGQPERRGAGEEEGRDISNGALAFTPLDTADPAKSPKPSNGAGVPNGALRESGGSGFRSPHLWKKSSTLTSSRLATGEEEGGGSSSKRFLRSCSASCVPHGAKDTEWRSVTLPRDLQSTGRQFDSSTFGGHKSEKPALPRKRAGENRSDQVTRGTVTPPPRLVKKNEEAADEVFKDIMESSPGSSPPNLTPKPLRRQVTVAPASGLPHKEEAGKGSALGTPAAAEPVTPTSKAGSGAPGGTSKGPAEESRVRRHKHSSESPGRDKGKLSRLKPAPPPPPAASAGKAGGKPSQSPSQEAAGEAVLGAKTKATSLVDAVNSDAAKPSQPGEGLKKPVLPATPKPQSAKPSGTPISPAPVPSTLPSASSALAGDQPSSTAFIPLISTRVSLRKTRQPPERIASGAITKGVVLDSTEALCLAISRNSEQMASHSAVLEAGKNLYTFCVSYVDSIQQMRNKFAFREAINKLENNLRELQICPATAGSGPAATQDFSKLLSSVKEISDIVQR
# Sequence of Ras and Rab interactor 1/Tyrosine-protein kinase ABL1 (Q13671 whole entry): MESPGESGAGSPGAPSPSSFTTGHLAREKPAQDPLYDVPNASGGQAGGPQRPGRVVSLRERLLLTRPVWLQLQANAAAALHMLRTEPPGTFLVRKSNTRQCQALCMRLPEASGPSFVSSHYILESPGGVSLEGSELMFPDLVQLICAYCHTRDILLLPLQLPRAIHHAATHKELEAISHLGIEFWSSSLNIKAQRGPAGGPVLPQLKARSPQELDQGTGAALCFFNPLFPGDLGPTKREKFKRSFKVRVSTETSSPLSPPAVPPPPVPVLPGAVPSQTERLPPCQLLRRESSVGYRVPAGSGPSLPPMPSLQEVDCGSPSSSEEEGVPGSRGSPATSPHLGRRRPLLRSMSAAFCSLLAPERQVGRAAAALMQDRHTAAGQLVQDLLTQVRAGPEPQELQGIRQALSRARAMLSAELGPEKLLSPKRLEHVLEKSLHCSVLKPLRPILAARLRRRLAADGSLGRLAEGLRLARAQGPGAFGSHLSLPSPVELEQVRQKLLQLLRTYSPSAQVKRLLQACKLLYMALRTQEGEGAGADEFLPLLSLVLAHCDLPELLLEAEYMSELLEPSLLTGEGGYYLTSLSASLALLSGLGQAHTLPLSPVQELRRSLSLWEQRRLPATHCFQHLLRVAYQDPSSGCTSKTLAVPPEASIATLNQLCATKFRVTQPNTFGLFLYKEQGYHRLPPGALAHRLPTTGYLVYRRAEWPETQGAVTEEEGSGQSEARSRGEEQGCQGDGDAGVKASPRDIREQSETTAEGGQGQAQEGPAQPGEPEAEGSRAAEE
# Sequence of Beta Lactamase (Q932Y6 whole entry): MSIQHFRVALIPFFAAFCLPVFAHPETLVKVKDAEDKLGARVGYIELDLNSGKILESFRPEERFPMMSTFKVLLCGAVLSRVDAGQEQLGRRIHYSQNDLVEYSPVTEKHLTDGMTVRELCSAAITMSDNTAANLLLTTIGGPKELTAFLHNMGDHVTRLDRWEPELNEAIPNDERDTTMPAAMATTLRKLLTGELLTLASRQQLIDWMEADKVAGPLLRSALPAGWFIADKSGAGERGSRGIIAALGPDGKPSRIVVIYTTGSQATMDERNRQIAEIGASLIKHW
# Sequence of 72 kDa type IV collagenase (P08253 whole entry, the tested form may be a part): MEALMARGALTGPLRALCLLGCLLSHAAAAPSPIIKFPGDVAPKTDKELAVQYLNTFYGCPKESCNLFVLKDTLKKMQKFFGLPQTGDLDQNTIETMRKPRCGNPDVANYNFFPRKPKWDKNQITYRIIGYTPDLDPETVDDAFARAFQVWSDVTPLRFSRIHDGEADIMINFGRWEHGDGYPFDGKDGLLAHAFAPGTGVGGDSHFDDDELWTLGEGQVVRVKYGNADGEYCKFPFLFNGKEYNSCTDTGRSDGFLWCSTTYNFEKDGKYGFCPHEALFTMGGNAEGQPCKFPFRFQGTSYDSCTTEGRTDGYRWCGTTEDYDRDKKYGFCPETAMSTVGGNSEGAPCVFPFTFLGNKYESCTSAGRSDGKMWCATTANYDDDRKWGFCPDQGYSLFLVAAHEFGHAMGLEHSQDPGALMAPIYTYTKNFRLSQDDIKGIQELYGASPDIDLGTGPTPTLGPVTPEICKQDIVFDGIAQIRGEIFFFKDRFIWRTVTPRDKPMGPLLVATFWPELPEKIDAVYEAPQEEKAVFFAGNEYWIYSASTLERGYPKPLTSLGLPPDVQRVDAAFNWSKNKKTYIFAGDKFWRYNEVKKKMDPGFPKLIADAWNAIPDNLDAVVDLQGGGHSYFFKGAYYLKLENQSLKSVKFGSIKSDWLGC
structure (smiles),measurement,setting,value
CCN1CCN(c2ncnc3scc(-c4ccc(C)cc4)c23)CC1,IC50,[1],2.09 µM (active)
same,IC50,[2],1.5 µM (active)
N#C/C(=C(/O)c1ccccc1F)c1nc2cc(C(F)(F)F)ccc2s1,IC50,[1],10 µM (active)
same,IC50,[2],6.31 µM (active)
Cc1ccc(-c2nn3c(-c4ccco4)nnc3c3ccccc23)cc1S(=O)(=O)NCC1CCCO1 (centres undefined),IC50,[3],5.73 µM (active)
same,IC50,[4],> 73.5 µM (inactive)
same,IC50,H9c2,> 79 µM (inactive)
O=[N+]([O-])c1ccc(N/N=C/c2c[nH]c3ccccc23)cc1,IC50,[5],> 100 µM (inactive)
same,IC50,CHO,47.2 µM (inactive)
same,IC50,[6],1.77 µM (active)
same,IC50,Prothrombin,2.05 µM (active)
same,IC50,Beta Lactamase,10.2 µM (inactive)
COC(=O)C(CC(C)C)NC(=O)/C=C/c1ccc(Cl)cc1 (centres undefined),IC50,[7],> 64.6 µM (inactive)
same,IC50,Melanocortin receptor 4,> 64.6 µM (inactive)
